Assay results from patent publication US7449488B2, “Pyrazolopyrimidines as protein kinase inhibitors” (priority 2002, dated 2008).

Molecular target: T1, CDK2 (cyclin A or E-dependent; cyclin-CDK2 complexes) (Homo sapiens, UniProt P24941)
T1 construct: made in house; host or cells: SF9 insect cells (baculovirus)
Experiment: CDK2 in vitro kinase assay (cyclin A or E-dependent), SPA
Assay type: biochemical

| Compound | IC50 [nM] |
| --- | --- |
| CCc1cn2ncc(Br)c2nc1C | 100 |
| Cc1nc2c(Br)cnn2cc1CCO | 300 |
| OCC[C@@H]1CCCCN1c1ccn2ncc(Br)c2n1 | 30 |
